Patent US20050075398A1, “Neuroprotectin D1 protects against cellular apoptosis, stroke damage, alzheimer's disease and retinal diseases” (priority 2003, published 2005)

How the values were obtained:
[1] = tested on: infarcted volume (stroke volume); test: Stroke volume by TTC staining after MCA-O; format: in vivo, mouse
Description: Assessment of stroke volume. Forty-eight hours after MCA-O, mice were killed, and brains were dissected and immersed in ice-cold saline. The dissected brains were embedded in agar blocks and sectioned into coronal slices 1 mm thick by a vibratome (Vibratome Co. St. Louis, Mo.). Sections were incubated at room temperature in a 3% buffered solution of 2,3,5,-triphenyltetrazolium chloride (TTC). Once color developed (10 to 15 min), sections were fixed in 10% buffered formalin, and kept at 4° C. until images were recorded by a camera (Cool-snap, Nikon) mounted to a dissecting microscope. In the digital images, total brain area and stroke areas were analyzed and calculated by Adobe Photoshop software. Serial sections were made for all animals. (Digital images not included).
To test for in vivo bioactivity of 10,17S-docosatriene (NPD1) in brain during focal ischemic stroke, Alzet mini-pumps were implanted into the third ventricle to deliver the lipid messenger over the 48 h reperfusion following 1 h of MCA-O. Brain coronal sections were incubated at room temperature in 3% buffered TTC (triphenyltetrazolium chloride) for approximately 10-15 min. The docosanoid 10,17S-docosatriene (NPD1) was infused (1 μg over 48 h by implanted Alzet mini-pumps). In photos, colorless areas indicated mitochondrial damage reflecting the inability to metabolize TTC. […]

B94 gene expression = test: HGU133 GeneChip DNA array in HN cells: B94; format: cell-based, human; details: Aβ42 25 μM, DHA 50 nM or NPD1 50 nM, 18 h, nsc = no significant change
Description: RNA Isolation and Spectral Quality. Brain tissues were rapidly processed, and total RNA was extracted using Trizol reagent (Invitrogen, Carlsbad, Calif.). Total RNA quality and abundance were profiled using RNA Nano LabChips (Caliper Technologies, Mountainview, Calif.; Agilent Technologies, Palo Alto, Calif.).
Probe Synthesis and GeneChip Hybridization. Biotinylated antisense cRNAs were synthesized from cDNA using the Superscript Choice System (Invitrogen) and Enzo Biorray High Yield RNA Transcript Labeling kits according to the manufacturer's protocols (Affymetrix) and as described in Colangelo, V., Schurr, J., Ball, M. J., Pelaez, R. P., Bazan, N. G., Lukiw, W. J. (2002) J. Neurosci. Res., 70: 462-473; and Lukiw, W. J. (2004) Neurochem. Research, 29: 1287-1297. Probes were hybridized against HU133Av2 GeneChip DNA arrays that interrogate approximately 33,000 full-length […] genes and expressed sequence tag (EST) clusters. […]
GeneChip Data and Statistical Analysis. […] Volcano plots were plotted representing total gene expression patterns as a function of fold-change as compared to expression patterns of age-matched controls as plotted against p, as calculated by an analysis of variance (ANOVA). […] Statistical significance was analyzed using a two-way factorial analysis of variance (p, ANOVA; Statistical Analysis System; SAS Institute, Cary, N.C. ).

[2] = tested on: myeloperoxidase immunoreactivity (PMN leukocytes); test: Immunohistochemistry of myeloperoxidase after MCA-O; format: in vivo, mouse; details: infusion 0.4 μg over 48 h; 1 h MCA-O, 48 h reperfusion
Description: Immunohistochemistry of myeloperoxidase to assess leukocyte infiltration. After MCA-O, mice were infused by Alzet mini-pumps with vehicle or 10,17S-docosatriene (NPD1). After 48 h, mice were anesthetized and killed by intracardial perfusion of ice-cold saline followed by 10% neutral buffered formalin. Brain tissues were allowed to equilibrate overnight in 4% buffered formalin, followed by 30% sucrose in 0.1 M PBS. Frozen sections were made at 10 μm thickness and mounted on glass slides. Sections were permeablized with 0.6% Triton X-100 for 10 min, washed in PBS, and blocked in 2% goat serum in PBS for 30 min. Incubation with myeloperoxidase/FITC-conjugated antibody (DAKO A/S, Denmark) was performed at 1:200 dilution for 2 h. Sections were washed in Tween-20 in PBS then mounted in Vectashield (Vector, Calif.). Images were recorded by deconvolution microscope (Intelligent Imaging Innovations, Denver, Colo.).
To determine whether 10,17S-docosatriene (NPD1) affected brain ischemia-reperfusion-induced PMN infiltration, either DHA or 10,17S-docosatriene (NPD1) was constantly infused into the third ventricle of a mouse brain during 48 h of reperfusion. […] The data shown represent averages± SD of the indicated number (n) of individual mice. Immunocytochemical changes in polymorphonuclear leukocytes were shown by a green fluorescence that indicated myeloperoxidase immunoreactivity. […]

COX-2 gene expression = test: HGU133 GeneChip DNA array in HN cells: COX-2; format: cell-based, human; details: Aβ42 25 μM, DHA 50 nM or NPD1 50 nM, 18 h, nsc = no significant change
Bfl-1(A1) protein = test: Western analysis of Bfl-1(A1) in HN cells; format: cell-based, human; details: 50 nM, p<0.05
Description: Western Analysis. Total protein was extracted, and 25 μg of protein was analyzed by Western blots using human Bcl-2, Bfl-1 (A1) and actin antibodies. […] Human specific anti-Bfl-1(A1)[Cat. No. sc-8351] was obtained from Santa Cruz Biotechnology (Santa Cruz, Calif.). For Western analysis, signal-intensity data were gathered by phosphorimaging onto molecular imaging screens (FUJIFILM) for 3-36 h using a Typhoon Molecular Imager system (Amersham Biosciences) as described in Bazan and Lukiw, 2002.
To confirm the above changes in Bcl-2 and Bfl-1(A1), Western analysis was performed using anti-Bcl-2, anti-Bfl-1(A1), and anti-actin primary antibodies (B3170 Sigma Life Science, sc-8351 Santa Cruz, and A2103 Sigma, respectively). The results of the Western analysis confirm up-regulation of Bcl-2 and Bfl-1(A1) anti-apoptotic proteins over actin controls in DHA- and NPD1-treated cells.

TNFα gene expression = test: HGU133 GeneChip DNA array in HN cells: TNFα; format: cell-based, human; details: Aβ42 25 μM, DHA 50 nM or NPD1 50 nM, 18 h, nsc = no significant change

**Q.** Which “reduction of stroke volume” value ([1]; 1 μg over 48 h at 250 nl/h intracerebroventricular, after 48 h) does the source give for `CC/C=C\C[C@H](O)\C=C/C=C/C=C/[C@H](O)C/C=C\C/C=C\CCC(=O)O` [NPD1, 10,17S-docosatriene] here?
**A.** 50%

**Q.** What about the “focal infarcted volume, percentage of total volume” value ([1]; 1 μg over 48 h by Alzet mini-pump into third ventricle, 1 h MCA-O, 48 h reperfusion, vehicle about 30%) of the same molecule?
**A.** less than 15%

**Q.** And the “B94 gene expression, fold change over untreated controls” value (B94 gene expression)?
**A.** nsc

**Q.** And the “green fluorescence (myeloperoxidase immunoreactivity), ipsilateral brain” value [2]?
**A.** surprisingly large reduction

**Q.** And the “COX-2 gene expression, fold change over untreated controls” value (COX-2 gene expression)?
**A.** nsc

**Q.** And the “Bfl-1(A1) protein increase over controls, normalized with actin” value (Bfl-1(A1) protein)?
**A.** 5.4 fold

**Q.** What about the “TNFα gene expression, fold change over untreated controls” value (TNFα gene expression) of the same molecule?
**A.** nsc
